Measured values taken from the supplement of paper PMC10307832.

Assays:
Assay in all cases: relative viability (nuclei count vs DMSO), 5 days (fraction); higher = more cells survive
[1] = compound: N=C1NC(=O)/C(=C/c2ccc(O)cc2)S1 [Mirin] + CS(=O)(=O)CCNCc1ccc(-c2ccc3ncnc(Nc4ccc(OCc5cccc(F)c5)c(Cl)c4)c3c2)o1 [Lapatinib] (partner 2 µM)
In short: (§1)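 After 5 days of treatment, lung cancer cells in 1536-well plates were fixed and stained in a single step (final 0.05% Triton X-100, 1% formaldehyde, 1 ug/ml Hoechst) and their nuclei counted on 4× images. Treatment had been applied by pin tool the day after seeding as one drug alone or as a fixed anchor-drug dose with five library-drug doses (not always all listed) in √10 steps. Relative viability is the nuclei count of treated wells divided by that of vehicle wells, and values are medians of duplicate plates.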

[2] = compound: CCC1=CN=CN=C1N2CCN(CC2)CC3=NC4=C(N3)C=C(C=C4)C(F)(F)F + Cc1nc(Nc2ncc(C(=O)Nc3c(C)cccc3Cl)s2)cc(N2CCN(CCO)CC2)n1 [Dasatinib] (partner 0.075 µM)
In short: as §1

[3] = compound: CCn1c(-c2nonc2N)nc2cnc(Oc3cccc(NC(=O)c4ccc(OCCN5CCOCC5)cc4)c3)cc21 + CS(=O)(=O)N1CCN(Cc2cc3nc(-c4cccc5[nH]ncc45)nc(N4CCOCC4)c3s2)CC1 [Pictilisib] (partner 1 µM)
In short: as §1

[4] = compound: N=C1NC(=O)/C(=C/c2ccc(O)cc2)S1 [Mirin] + CCNC(=O)c1noc(-c2cc(C(C)C)c(O)cc2O)c1-c1ccc(CN2CCOCC2)cc1 [Luminespib] (partner 0.01 µM)
In short: as §1

| Cell Line | relative viability ([1]; first compound 0.25 µM) | relative viability ([1]; first compound 0.7906 µM) | relative viability ([1]; first compound 2.5 µM) | relative viability ([1]; first compound 7.906 µM) | relative viability ([1]; first compound 25 µM) | relative viability ([2]; first compound 0.04 µM) | relative viability ([2]; first compound 0.1265 µM) | relative viability ([2]; first compound 0.4 µM) | relative viability ([2]; first compound 1.265 µM) | relative viability ([2]; first compound 4 µM) | relative viability ([3]; first compound 0.04 µM) | relative viability ([3]; first compound 0.1265 µM) | relative viability ([3]; first compound 1.265 µM) | relative viability ([3]; first compound 4 µM) | relative viability ([4]; first compound 0.25 µM) | relative viability ([4]; first compound 0.7906 µM) | relative viability ([4]; first compound 2.5 µM) | relative viability ([4]; first compound 7.906 µM) | relative viability ([4]; first compound 25 µM) | relative viability ([3]; first compound 0.4 µM) |
| --- | --- | --- | --- | --- | --- | --- | --- | --- | --- | --- | --- | --- | --- | --- | --- | --- | --- | --- | --- | --- |
| LCLC-97TM1 | 1.04 | 0.594 | 0.857 | 0.867 | 1 | 0.881 | 0.765 | 0.668 | 0.816 | 0.897 | 0.261 | 0.363 | 0.351 | 0.236 | 0.672 | 0.646 | 0.679 | 0.63 | 0.495 | – |
| NCI-H2170 | 0.273 | 0.223 | 0.278 | 0.324 | 0.274 | 0.547 | 0.631 | 0.487 | 0.505 | 0.475 | 0.279 | 0.27 | 0.247 | 0.258 | 0.828 | 0.656 | 0.934 | 0.693 | 0.663 | 0.229 |
| NCI-H1793 | 0.899 | 0.413 | 0.914 | 0.881 | 0.652 | 0.392 | 0.382 | 0.32 | – | 0.307 | 0.336 | 0.413 | 0.312 | 0.328 | 0.572 | – | 0.235 | 0.196 | 0.171 | 0.295 |
| NCI-H322M | 0.569 | 0.831 | 0.929 | 0.683 | 0.705 | 0.261 | 0.257 | 0.258 | 0.239 | 0.249 | 0.579 | 0.541 | 0.693 | 0.591 | 0.924 | 0.745 | 0.913 | 1.05 | 0.583 | 0.581 |
| PC-3 [JPC-3] | 0.52 | 0.469 | 0.462 | 0.455 | 0.491 | 0.978 | 0.935 | 0.889 | 1 | 0.969 | 0.919 | 0.775 | 0.723 | 0.714 | 0.664 | 0.732 | 0.758 | 0.651 | 0.787 | 0.68 |
| EPLC-272H | 0.9 | – | 0.886 | 0.83 | 0.664 | 0.332 | 0.33 | 0.313 | 0.291 | 0.421 | 0.406 | 0.341 | 0.258 | 0.281 | 0.176 | – | 0.311 | 0.198 | 0.185 | 0.181 |
| A-427 | 1.12 | – | 1.17 | 1.05 | 1.08 | 0.563 | 0.753 | 0.659 | 0.614 | 0.655 | 0.879 | 0.674 | 0.526 | 0.402 | 0.756 | 1.01 | 0.905 | 0.89 | 0.952 | 0.666 |
